Literature values as cited in US9386793B2, “Compositions and methods for treating obesity and related disorders by characterizing and restoring mammalian bacterial microbiota” (New York University, priority 2010, dated 2016).

Experiments:
Coprobacillus = test system: Coprobacillus; set-up: key: + facilitates growth; w weak growth promotion; +/− growth variable dependent on strain; − no growth effect; details: substrate for fermentation
Oscillibacter = test system: Oscillibacter; set-up: key: + facilitates growth; w weak growth promotion; +/− growth variable dependent on strain; − no growth effect; details: substrate for fermentation
Clostridium cocleatum = test system: Clostridium cocleatum; set-up: key: + facilitates growth; w weak growth promotion; +/− growth variable dependent on strain; − no growth effect; details: substrate for fermentation
Holdemania = test system: Holdemania; set-up: key: + facilitates growth; w weak growth promotion; +/− growth variable dependent on strain; − no growth effect; details: substrate for fermentation
Johnsonella = test system: Johnsonella; set-up: key: + facilitates growth; w weak growth promotion; +/− growth variable dependent on strain; − no growth effect; details: substrate for fermentation
Sporacetegenium = test system: Sporacetegenium; set-up: key: + facilitates growth; w weak growth promotion; +/− growth variable dependent on strain; − no growth effect; details: substrate for fermentation
[1] = test system: Coprobacillus, Sporacetigenium, Holdemania, or Clostridium cocleatum; details: but not of Johnsonella and Oscillibacter

Row | Compound | growth of Coprobacillus (Coprobacillus) | growth of Oscillibacter (Oscillibacter) | growth of Clostridium cocleatum (Clostridium cocleatum) | growth of Holdemania (Holdemania) | growth of Johnsonella (Johnsonella) | growth of Sporacetegenium (Sporacetegenium) | growth and metabolic activity of genera (as follows from Table 1) [1]
1 | O=C[C@@H](O)[C@H](O)[C@H](O)CO [Arabinose] | − | +/−^a | − | w | − | + | 
2 | O=C[C@H](O)[C@@H](O)[C@H](O[C@@H]1O[C@H](CO)[C@@H](O)[C@H](O)[C@H]1O)[C@H](O)CO [Cellobiose] | + | − | + | w | − | w | stimulate growth and metabolic activity of two or more genera
3 | O=C[C@@H](O)[C@H](O)[C@H](O)CO [D-arabinose] |  | − |  |  |  |  | 
4 | O=c1ccc2cc(O[C@@H]3O[C@H](CO)[C@@H](O)[C@H](O)[C@H]3O)c(O)cc2o1 [Esculin] | − |  |  | + | − |  | 
5 | O=C(CO)[C@@H](O)[C@H](O)[C@H](O)CO [Fructose] | + | − | + | + | − | + | stimulate growth and metabolic activity of two or more genera
6 | O=C[C@H](O)[C@@H](O)[C@@H](O)[C@H](O)CO [Galactose] | + | − | + |  |  | w | stimulate growth and metabolic activity of two or more genera
7 | O=C[C@H](O)[C@@H](O)[C@@H](O)CO [L-arabinose] |  | + |  |  |  |  | 
8 | OC[C@H]1O[C@@H](O[C@H]2[C@H](O)[C@@H](O)C(O)O[C@@H]2CO)[C@H](O)[C@@H](O)[C@H]1O (stereo partly shown) [Lactose] | + | − | + | + | − | w | stimulate growth and metabolic activity of two or more genera
9 | OC[C@H]1O[C@H](O[C@H]2[C@H](O)[C@@H](O)[C@H](O)O[C@@H]2CO)[C@H](O)[C@@H](O)[C@@H]1O [Maltose] | + | − | + | + | − | + | stimulate growth and metabolic activity of two or more genera
10 | OC[C@H]1O[C@H](OCC2O[C@@H](O)[C@H](O)[C@@H](O)[C@@H]2O)[C@H](O)[C@@H](O)[C@H]1O (stereo partly shown) [Mellibiose] |  | − | + | w | − | w | stimulate growth and metabolic activity of two or more genera
11 | OC[C@H]1O[C@H](OC[C@H]2O[C@H](O[C@]3(CO)O[C@H](CO)[C@@H](O)[C@@H]3O)[C@H](O)[C@@H](O)[C@@H]2O)[C@H](O)[C@@H](O)[C@H]1O [Raffinose] | − | − | + | w | − | w | stimulate growth and metabolic activity of two or more genera
12 | C[C@H](O)[C@H](O)[C@@H](O)[C@@H](O)C=O [Rhamnose] | − | − | − | w | − | w | 
13 | O=C[C@H](O)[C@H](O)[C@H](O)CO [Ribose] | − | + | − | w | − | +/− | 
14 | OCc1ccccc1O[C@@H]1O[C@H](CO)[C@@H](O)[C@H](O)[C@H]1O [Salicin] | + | − | w | + | − | − | stimulate growth and metabolic activity of two or more genera
15 | OC[C@H]1O[C@@](CO)(O[C@H]2O[C@H](CO)[C@@H](O)[C@H](O)[C@H]2O)[C@@H](O)[C@@H]1O [Sucrose] | + | − | + | + | − | w | stimulate growth and metabolic activity of two or more genera
16 | OC[C@H]1O[C@H](O[C@H]2O[C@H](CO)[C@@H](O)[C@H](O)[C@H]2O)[C@H](O)[C@@H](O)[C@@H]1O [Trehalose] | + | − | − | w | − | w | stimulate growth and metabolic activity of two or more genera
17 | O=C[C@H](O)[C@@H](O)[C@H](O)CO [Xylose] | − | + | − | w | − | + | 
18 | Inulin |  |  | + |  |  |  | 
